From patent publication US11053260B2, “Tri-cycle compound and applications thereof” (FUJIAN COSUNTER PHARMACEUTICAL CO., LTD., priority 2017, dated 2021) come the findings set out here.

Molecules are shown by their SMILES.

One test has as its system HBV. The experiment in a line: HBV in vitro test in quantitative qPCR assay (HBV DNA content in HepG2.2.15 cells). It counts as cell-based. The note with it: HBV DNA by qPCR, day 8, read-out: 50% inhibitory concentration (EC50) value of HBV. The method, then: HBV In Vitro Test in Quantitative qPCR Assay
The HBV DNA content in HepG2.2.15 cells was determined by real-time quantitative qPCR assay (real time-qPCR), and the inhibitory effect of the compound on HBV was evaluated by the EC50 value of the compound.
2.1 Cell line: HepG2.2.15 cells
3.1 HepG2.2.15 cells (4×10^4 cells/well) were seeded into a 96-well plate and incubated overnight at 37° C. under 5% CO2.
3.2 On the 2nd day, the compound was diluted into 8 concentrations with 3-time gradient. The compounds with different concentrations were added into the culture wells in duplicate wells. The final concentration of DMSO in the culture medium was 1%. 1 μM GLS4 was used as a 100% inhibition control, and 1% DMSO was used as a 0% inhibition control.
3.3 On the 5th day, the culture medium was replaced with a fresh medium containing the compound.
3.4 On the 8th day, the culture medium in the culture well was collected, and the DNA was extracted with a high-throughput DNA purification kit (Qiagen-51162), of which specific procedure was referred to the product specification.
3.6 15 μL of the reaction mixture was added into each well of a 96-well PCR plate, followed by addition of 10 μL of sample DNA or HBV DNA standards into each well.
3.7 PCR reaction conditions: heating at 95° C. for 10 minutes; then denaturation at 95° C. for 15 seconds, extension at 60° C. for 1 minute, a total of 40 cycles.
3.8.1 Calculation of the percentage of inhibition: % Inh.=[1−(DNA copy number in sample−DNA copy number in 1 μM GLS4)/(DNA copy number in DMSO control−DNA copy number in 1 μM GLS4)]×100
3.8.2 Calculation of EC50: The 50% inhibitory concentration (EC50) value of the compound on HBV was calculated by GraphPad Prism software.
(Quantitative PCR measures a nucleic acid by following its amplification.)
On to `O=C(NCCOc1cccnc1)c1ccc2c(c1)NC(=O)c1cccn1S2(=O)=O` [WX297], for which the EC50 was ≤ 100 nM.

The test is the same for the next values; noted with them: Hepatitis B virus, HepG2.2.15, 192 h, HBV DNA by qPCR, day 8, read-out: 50% inhibitory concentration (EC50) value of HBV.
As to `O=C(NCCC(F)(F)F)c1ccc2c(c1)NC(=O)c1cccn1S2(=O)=O` [WX230], the EC50 lay within 100 to 500 nM.
On the same count and under the same terms, the figure for `O=C(NCc1cncnc1)c1ccc2c(c1)NC(=O)c1cccn1S2(=O)=O` [WX231] is 100 to 500 nM; for `CS(=O)(=O)N1CC(NC(=O)c2ccc3c(c2)NC(=O)c2cccn2S3(=O)=O)C1` [WX232] it is 500 to 1000 nM; for `CN(C)c1ncc(CNC(=O)c2ccc3c(c2)NC(=O)c2cccn2S3(=O)=O)s1` [WX233] it is ≤ 100 nM.
With `O=C(NCc1ccc(C(F)(F)F)cc1)c1ccc2c(c1)NC(=O)c1cccn1S2(=O)=O` [WX235], the EC50 lay within 100 to 500 nM.
On the same count and under the same terms, the figure for `O=C(NCCc1cccc(F)c1)c1ccc2c(c1)NC(=O)c1cccn1S2(=O)=O` [WX237] is ≤ 100 nM.
On to `O=C(NCc1cccc(F)c1)c1ccc2c(c1)NC(=O)c1cccn1S2(=O)=O` [WX239], for which the EC50 is ≤ 100 nM.
On to `CC(C)c1ncc(CNC(=O)c2ccc3c(c2)NC(=O)c2cccn2S3(=O)=O)s1` [WX254], for which the EC50 is 100 to 500 nM.
For `CC(C)c1ncc(CNC(=O)c2ccc3c(c2)NC(=O)c2cc(Cl)cn2S3(=O)=O)s1` [WX255], the EC50 is ≤ 100 nM.
The same measure, in the same setting: then `O=C(NCc1cnc(Cl)s1)c1ccc2c(c1)NC(=O)c1cccn1S2(=O)=O` [WX257], with ≤ 100 nM; and `Cc1cccc2ncc(CNC(=O)c3ccc4c(c3)NC(=O)c3cccn3S4(=O)=O)n12` [WX258], with 100 to 500 nM; and `Cc1ccsc1CNC(=O)c1ccc2c(c1)NC(=O)c1cccn1S2(=O)=O` [WX259], with 100 to 500 nM.
As to `Cc1nc(C)c(CNC(=O)c2ccc3c(c2)NC(=O)c2cccn2S3(=O)=O)s1` [WX260], the EC50 was ≤ 100 nM.
Turning to `Cc1ccc2ncc(CNC(=O)c3ccc4c(c3)NC(=O)c3cccn3S4(=O)=O)n2c1` [WX261], the EC50 was in the range of 100 to 500 nM.
Still for that read-out and setting: the figure for `Cc1ccc(CNC(=O)c2ccc3c(c2)NC(=O)c2cccn2S3(=O)=O)s1` [WX262] is 100 to 500 nM; for `Cn1nccc1CNC(=O)c1ccc2c(c1)NC(=O)c1cccn1S2(=O)=O` [WX263] it is 500 to 1000 nM; for `O=C(NCc1cnccc1C(F)(F)F)c1ccc2c(c1)NC(=O)c1cccn1S2(=O)=O` [WX265] it is 1000 to 10000 nM.
Still for that read-out and setting: then `CN(Cc1nc2ccccc2s1)C(=O)c1ccc2c(c1)NC(=O)c1cccn1S2(=O)=O` [WX266], with 100 to 500 nM; and `O=C(NCc1cnc2ccccn12)c1ccc2c(c1)NC(=O)c1cccn1S2(=O)=O` [WX267], with 100 to 500 nM; and `O=C(NCCC1CCCO1)c1ccc2c(c1)NC(=O)c1cc(F)cn1S2(=O)=O` (stereo not drawn) [WX270], with 100 to 500 nM.
In the case of `Cc1nnc(CNC(=O)c2ccc3c(c2)NC(=O)c2cccn2S3(=O)=O)s1` [WX271], the EC50 was 500 to 1000 nM.
Turning to `Cn1cc(CNC(=O)c2ccc3c(c2)NC(=O)c2cccn2S3(=O)=O)cn1` [WX272], the EC50 lay in the range of 100 to 500 nM.
Same read-out and setting: the figure for `CN1CC(CNC(=O)c2ccc3c(c2)NC(=O)c2cccn2S3(=O)=O)OC1=O` (stereo not drawn) [WX275] is 500 to 1000 nM; for `O=C(NCCc1cccnc1)c1ccc2c(c1)NC(=O)c1cccn1S2(=O)=O` [WX278] it is ≤ 100 nM; for `CC(C)(C)C(=O)N1CCC(CNC(=O)c2ccc3c(c2)NC(=O)c2cccn2S3(=O)=O)CC1` [WX279] it is 100 to 500 nM.
Same read-out and setting: then `O=C(NCC1CCOC1)c1ccc2c(c1)NC(=O)c1cccn1S2(=O)=O` (stereo not drawn) [WX280], with 100 to 500 nM; and `CC(C)OC(=O)N1CCC(CNC(=O)c2ccc3c(c2)NC(=O)c2cccn2S3(=O)=O)CC1` [WX285], with 100 to 500 nM.
Same read-out and setting: the figure for `O=C(NCC1CCN(C(=O)Oc2ccccc2)CC1)c1ccc2c(c1)NC(=O)c1cccn1S2(=O)=O` [WX286] is 500 to 1000 nM; for `CC(C)CC(=O)N1CCC(CNC(=O)c2ccc3c(c2)NC(=O)c2cccn2S3(=O)=O)CC1` [WX287] it is 500 to 1000 nM; for `O=C(NCC1CCC(F)(F)CC1)c1ccc2c(c1)NC(=O)c1cccn1S2(=O)=O` [WX288] it is 100 to 500 nM.
For the compound `O=C(NCCOC1CCCC1)c1ccc2c(c1)NC(=O)c1cccn1S2(=O)=O` [WX292], the EC50 was in the range of 500 to 1000 nM.
On the same count and under the same terms, then `O=C(NCCc1ccc(F)c(F)c1)c1ccc2c(c1)NC(=O)c1cccn1S2(=O)=O` [WX293], with ≤ 100 nM; and `O=C(NCCOc1cccnc1)c1ccc2c(c1)NC(=O)c1cccn1S2(=O)=O` [WX295], with 100 to 500 nM.
Same read-out and setting: the figure for `N#Cc1ccc(-c2ncc(CNC(=O)c3ccc4c(c3)NC(=O)c3cccn3S4(=O)=O)s2)cc1` [WX298] is ≤ 100 nM; for `O=C(NCCCc1ccc(F)cc1)c1ccc2c(c1)NC(=O)c1cccn1S2(=O)=O` [WX299] it is 100 to 500 nM.
Consider `O=C(NCCc1cccc(Cl)c1)c1ccc2c(c1)NC(=O)c1cccn1S2(=O)=O` [WX300], for which the EC50 lay in the range of 100 to 500 nM.
`O=C(NCCc1ccc(Cl)cc1)c1ccc2c(c1)NC(=O)c1cccn1S2(=O)=O` [WX301]: the EC50 is ≤ 100 nM.
For the compound `Cc1cc2n(c1)S(=O)(=O)c1ccc(C(=O)NCCc3ccc(F)cc3)cc1NC2=O` [WX305], the EC50 is ≤ 100 nM.
On the same count and under the same terms, then `Cc1cc2n(c1)S(=O)(=O)c1ccc(C(=O)NCc3cccnc3)cc1NC2=O` [WX306], with ≤ 100 nM; and `Cc1cc2n(c1)S(=O)(=O)c1ccc(C(=O)NCc3cnc(-c4ccc(C#N)cc4)s3)cc1NC2=O` [WX308], with ≤ 100 nM.
Take `Cc1cc2n(c1)S(=O)(=O)c1ccc(C(=O)NCCC3CCCCO3)cc1NC2=O` (stereo not drawn) [WX309]: the EC50 was ≤ 100 nM.
Turning to `O=C(NCCC1CCCO1)c1ccc2c(c1)NC(=O)c1cc(Br)cn1S2(=O)=O` (stereo not drawn) [WX311], the EC50 was ≤ 100 nM.
The same measure, in the same setting: then `O=C(NCCC1CCCCO1)c1ccc2c(c1)NC(=O)c1cc(Br)cn1S2(=O)=O` (stereo not drawn) [WX312], with ≤ 100 nM.
`O=C(NCCC1CCCCCO1)c1ccc2c(c1)NC(=O)c1cccn1S2(=O)=O` (stereo not drawn) [WX318]: the EC50 was ≤ 100 nM.
With `O=C(NCCC1COCCOC1)c1ccc2c(c1)NC(=O)c1cccn1S2(=O)=O` [WX321], the EC50 fell in the range of 100 to 500 nM.
In the case of `CC(=O)N1CCOC(CCNC(=O)c2ccc3c(c2)NC(=O)c2cccn2S3(=O)=O)C1` (stereo not drawn) [WX322], the EC50 is ≤ 100 nM.
On the same count and under the same terms, the figure for `COC(=O)N1CCOC(CCNC(=O)c2ccc3c(c2)NC(=O)c2cccn2S3(=O)=O)C1` (stereo not drawn) [WX323] is ≤ 100 nM; for `CN1CCOC(CCNC(=O)c2ccc3c(c2)NC(=O)c2cccn2S3(=O)=O)C1` (stereo not drawn) [WX326] it is ≤ 100 nM.
Same read-out and setting: the figure for `O=C(NCCC1COCCO1)c1ccc2c(c1)NC(=O)c1cc(CC(F)(F)F)cn1S2(=O)=O` (stereo not drawn) [WX328] is ≤ 100 nM.
Same read-out and setting: then `CC(C)c1cc2n(c1)S(=O)(=O)c1ccc(C(=O)NCCC3COCCO3)cc1NC2=O` (stereo not drawn) [WX338], with 100 to 500 nM.
